Test results as given in patent US10988465B2, “CXCR4 inhibitors and uses thereof” (X4 Pharmaceuticals, Inc., priority 2016, dated 2021).

What was measured:
[1] = molecular target: T1, Jurkat cells expressing CXCR4 (Homo sapiens, UniProt P61073); assay: Chemokine (CXCL12-AF647) binding inhibition assay; settings: CXCL12-AF647 25 ng/mL, read-out: IC50 CXCL-12 binding Jurkat
T1 construct: endogenous in cells; host or cells: Jurkat
Procedure, shortened: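 Cells in HBSS, 20 mM HEPES, 0.2% BSA, pH 7.4, preincubated 15 min at room temperature with compound, then 25 ng/mL CXCL12-AF647 for 30 min. After washing and paraformaldehyde fixation, bound ligand read by flow cytometry; percent inhibition calculated from MFI relative to unlabeled and ligand-only controls.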

in vitro = settings: human, Caco-2, pH 7.4
Procedure, shortened: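 Caco-2 monolayers, checked by TEER with Lucifer yellow as marker, were dosed with 10 μM compound in HBSS pH 7.4 in A-to-B and B-to-A directions. Incubation was 90 min at 37° C, in duplicate. Samples were quantified by LC-MS/MS and Papp calculated.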

[2] = molecular target: T2, CXCR-4 transfected U87 cell line (U87.CXCR4) (Homo sapiens, UniProt P61073); assay: Intracellular CXCL-12-induced calcium mobilization assay (FLIPR); type: cell-based; settings: U87.CXCR4 cells; CXCL-12 25-50 ng/mL; compound added 15 min before; read-out: IC50 CXCL-12 Ca^2+ flux U87.CXCR4+
T2 construct: expressed in transfected cells; host or cells: U87 (U87.CXCR4)
Procedure, shortened: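 U87 cells stably expressing human CXCR4, loaded with Fluo-2 AM (4 μM final) for 45 min at 37 °C in HBSS/20 mM HEPES/0.2% BSA, pH 7.4. Calcium flux triggered by CXCL-12 (25-50 ng/mL) was followed by FLIPR fluorescence over time at 37 °C.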

T2 sequence (P61073 whole entry): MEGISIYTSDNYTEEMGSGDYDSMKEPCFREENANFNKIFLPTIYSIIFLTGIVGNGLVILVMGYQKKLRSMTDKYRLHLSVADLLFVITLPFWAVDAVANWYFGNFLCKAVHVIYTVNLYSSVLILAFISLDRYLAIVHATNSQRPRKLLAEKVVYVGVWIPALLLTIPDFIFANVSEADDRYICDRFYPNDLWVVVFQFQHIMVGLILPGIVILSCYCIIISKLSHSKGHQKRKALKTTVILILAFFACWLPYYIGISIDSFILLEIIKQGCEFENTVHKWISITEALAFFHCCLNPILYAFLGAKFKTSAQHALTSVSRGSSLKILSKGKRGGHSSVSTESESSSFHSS
T1 sequence (P61073 whole entry): as above

IC50 [1] | Papp A→B at 90 min, 10 μM (in vitro) | Papp B→A at 90 min, 10 μM (in vitro) | efflux ratio at 90 min, 10 μM (in vitro) | IC50 [2] | SMILES
0.01 to 100 nM | 10 to 30 ×10⁻⁶ cm/s | 10 to 30 ×10⁻⁶ cm/s | 0.1 to 10 | 0.01 to 100 nM | CC(C)N1CCN(c2cccc3nc([C@H]4CCC[C@@H](c5ncccc5Cl)N4)[nH]c23)CC1 [I-148]
0.01 to 100 nM | 10 to 30 ×10⁻⁶ cm/s | 10 to 30 ×10⁻⁶ cm/s | 0.1 to 10 | 0.01 to 100 nM | CCN1CCN(c2cccc3nc([C@H]4CCC[C@@H](c5ncccc5Cl)N4)[nH]c23)CC1 [I-149]
0.01 to 100 nM | 10 to 30 ×10⁻⁶ cm/s | 10 to 30 ×10⁻⁶ cm/s | 0.1 to 10 | 0.01 to 100 nM | CN1[C@@H](c2nc3cccc(N4CCN5CCCC5C4)c3[nH]2)CCC[C@H]1c1ncccc1Cl (some centres unmarked) [I-150]
0.01 to 100 nM | 0.1 to 10 ×10⁻⁶ cm/s | 10 to 30 ×10⁻⁶ cm/s | 0.1 to 10 | 0.01 to 100 nM | Cc1cccnc1[C@@H]1CCC[C@H](c2nc3cccc(C4CCN(C)CC4)c3[nH]2)N1 [I-151]
0.01 to 100 nM | 0.1 to 10 ×10⁻⁶ cm/s | 10 to 30 ×10⁻⁶ cm/s | 0.1 to 10 | 0.01 to 100 nM | CN1CCC(c2cccc3nc([C@H]4CCC[C@@H](c5ncccc5Cl)N4)[nH]c23)CC1 [I-152]
0.01 to 100 nM | 0.1 to 10 ×10⁻⁶ cm/s | 10 to 30 ×10⁻⁶ cm/s | 0.1 to 10 | 0.01 to 100 nM | CN(C)C1CCN(c2cccc3nc([C@H]4CCC[C@@H](c5ncccc5Cl)N4)[nH]c23)CC1 [I-153]
0.01 to 100 nM | 10 to 30 ×10⁻⁶ cm/s | 10 to 30 ×10⁻⁶ cm/s | 0.1 to 10 | 100 to 1000 nM | CN1CCC(n2c([C@H]3CCC[C@@H](c4ccccn4)N3)nc3ccccc32)CC1 [I-154]
0.01 to 100 nM | 0.1 to 10 ×10⁻⁶ cm/s | > 30 ×10⁻⁶ cm/s | 0.1 to 10 | ≥ 1000 nM | Cc1cccnc1[C@@H]1CCC[C@H](c2nc3ccccc3n2CCCN(C)C)N1 [I-155]
≥ 1000 nM | 10 to 30 ×10⁻⁶ cm/s | 10 to 30 ×10⁻⁶ cm/s | 0.1 to 10 | ≥ 1000 nM | COCCCn1c([C@H]2CCC[C@@H](c3ncccc3C)N2)nc2ccccc21 [I-158]
≥ 1000 nM | 10 to 30 ×10⁻⁶ cm/s | 10 to 30 ×10⁻⁶ cm/s | 0.1 to 10 | ≥ 1000 nM | Cc1cccnc1[C@@H]1CCC[C@H](c2nc3ccccc3n2CCC#N)N1 [I-159]
100 to 1000 nM | > 30 ×10⁻⁶ cm/s | > 30 ×10⁻⁶ cm/s | 0.1 to 10 | ≥ 1000 nM | Cc1cccnc1[C@@H]1CCC[C@H](c2nc3ccccc3n2CCC#N)N1C [I-160]
100 to 1000 nM | > 30 ×10⁻⁶ cm/s | > 30 ×10⁻⁶ cm/s | 0.1 to 10 | ≥ 1000 nM | Cc1cccnc1[C@@H]1CCC[C@H](c2nc3ccccc3n2Cc2ccccc2-n2cccn2)N1 [I-161]
100 to 1000 nM | 10 to 30 ×10⁻⁶ cm/s | 10 to 30 ×10⁻⁶ cm/s | 0.1 to 10 | ≥ 1000 nM | Cc1cccnc1[C@@H]1CCC[C@H](c2nc3cccc(N4CCN(c5ccccn5)CC4)c3[nH]2)N1 [I-162]
0.01 to 100 nM | 0.1 to 10 ×10⁻⁶ cm/s | 10 to 30 ×10⁻⁶ cm/s | 0.1 to 10 | 0.01 to 100 nM | Cc1cccnc1[C@@H]1CCC[C@H](c2nc3ccccc3[nH]2)N1CCc1cn2ccccc2n1 [I-164]
0.01 to 100 nM | 0.1 to 10 ×10⁻⁶ cm/s | 10 to 30 ×10⁻⁶ cm/s | 0.1 to 10 | 100 to 1000 nM | Cc1cccnc1[C@@H]1CCC[C@H](c2nccn2CCCN(C)C)N1C [I-165, N,N-dimethyl-3-(2-((2R,6S)-1-methyl-6-(3-methylpyridin-2-yl)piperidin-2-yl)-1H-imidazol-1-yl)propan-1-amine]
100 to 1000 nM | 10 to 30 ×10⁻⁶ cm/s | 10 to 30 ×10⁻⁶ cm/s | 0.1 to 10 | ≥ 1000 nM | Cc1cccnc1[C@@H]1CCC[C@H](c2ncc[nH]2)N1Cc1ccccc1-n1cccn1 [I-166]
≥ 1000 nM | > 30 ×10⁻⁶ cm/s | > 30 ×10⁻⁶ cm/s | 0.1 to 10 | ≥ 1000 nM | Cc1cccnc1[C@@H]1CCC[C@H](c2nccn2Cc2ccccc2-n2cccn2)N1 [I-167]
0.01 to 100 nM | 0.1 to 10 ×10⁻⁶ cm/s | 10 to 30 ×10⁻⁶ cm/s | 0.1 to 10 | 0.01 to 100 nM | Cc1cccnc1[C@@H]1CCC[C@H](c2nccn2C2CCN(C)CC2)N1C [I-168]
0.01 to 100 nM | 0.1 to 10 ×10⁻⁶ cm/s | > 30 ×10⁻⁶ cm/s | 0.1 to 10 | 100 to 1000 nM | CN(C)CCCn1ccnc1[C@H]1CCC[C@@H](c2ncccc2Cl)N1C [I-169]
0.01 to 100 nM | 0.1 to 10 ×10⁻⁶ cm/s | 10 to 30 ×10⁻⁶ cm/s | 0.1 to 10 | ≥ 1000 nM | Cc1cccnc1[C@@H]1CCC[C@H](c2nccn2C2CCN(C)CC2)N1 [I-171]
≥ 1000 nM | 10 to 30 ×10⁻⁶ cm/s | 10 to 30 ×10⁻⁶ cm/s | 0.1 to 10 | ≥ 1000 nM | CN1CCC(n2ccnc2[C@H]2CCC[C@@H](c3ncccc3Cl)N2)CC1 [I-172]
≥ 1000 nM | 10 to 30 ×10⁻⁶ cm/s | 10 to 30 ×10⁻⁶ cm/s | 0.1 to 10 | ≥ 1000 nM | Cc1cc(F)cnc1[C@@H]1CCC[C@H](c2nccn2C2CCN(C)CC2)N1 [I-173]
0.01 to 100 nM | 10 to 30 ×10⁻⁶ cm/s | 10 to 30 ×10⁻⁶ cm/s | 0.1 to 10 | 100 to 1000 nM | Cc1cccnc1[C@@H]1CCC[C@H](c2nccn2C2CCN(C3CC3)CC2)N1C [I-174]
0.01 to 100 nM | 0.1 to 10 ×10⁻⁶ cm/s | 10 to 30 ×10⁻⁶ cm/s | 10 to 30 | 100 to 1000 nM | Cc1cccnc1[C@@H]1CCC[C@H](c2nccn2CC2CCN(C)CC2)N1 [I-175]
≥ 1000 nM | 10 to 30 ×10⁻⁶ cm/s | > 30 ×10⁻⁶ cm/s | 0.1 to 10 | ≥ 1000 nM | Cc1cccnc1[C@@H]1CCC[C@H](c2nccn2CCn2cccn2)N1 [I-176]
≥ 1000 nM | 10 to 30 ×10⁻⁶ cm/s | 10 to 30 ×10⁻⁶ cm/s | 0.1 to 10 | ≥ 1000 nM | Cc1cccnc1[C@@H]1CCC[C@H](c2nccn2CCc2ccccn2)N1 [I-177]
0.01 to 100 nM | 0.1 to 10 ×10⁻⁶ cm/s | 10 to 30 ×10⁻⁶ cm/s | 10 to 30 | 100 to 1000 nM | Cc1cccnc1[C@@H]1CCC[C@H](c2nccn2C2CCNCC2)N1C [I-179]
≥ 1000 nM | 0.1 to 10 ×10⁻⁶ cm/s | 10 to 30 ×10⁻⁶ cm/s | 0.1 to 10 | ≥ 1000 nM | CN1CCC(n2ccnc2[C@H]2CCC[C@@H](c3ccccn3)N2)CC1 [I-180]
